Key:
P388 mouse leukemia = P388 mouse leukemia test (comparison of 2-hydroxy isomers); type: in vivo; conditions: β-hydroxy versus α-hydroxy isomers
Text: The diastereoisomers of BBM-2040A and B of the present invention have been disclosed in Symposium Papers of the 24th Symposium on the Chemistry of Natural Products (Osaka, Japan, Oct. 13-16, 1981): Paper #72, pp. 552-559. Compounds 31b and 32b in this paper have the structures [drawing 2] and may be differentiated from BBM-2040A and B of the present invention in the configuration of the C-2 hydroxy group, i.e. BBM-2040A and B have the C-2 hydroxy group in the α-configuration while the corresponding 31b and 32b diastereoisomers have the β-configuration at the C-2 hydroxy group.

[1] = system: lymphocytic leukemia P388; experiment: Antitumor activity against leukemia P388 in mice (Table 9); type: in vivo, mice (BDF1 strain); conditions: first experiment; ip, qd 1→9; comparative
Protocol: The antitumor activity of BBM-2040A and B was determined in mice (BDF1 strain) against lymphocytic leukemia P388. Each mouse was inoculated intraperitoneally with 10^6 cells of tumor. Graded doses of test compounds were administered to mice intraperitoneally 24 hours after the tumor implantation. The treatments were given once daily for 9 days (qd 1→9 schedule). Neothramycin was comparatively tested as a reference compound.
*ratio of median survival time of test and control animals

[2] = Acute toxicity, single intraperitoneal administration; set-up: species or system mice (ddY strain); conditions: mouse, in vivo, ip, ddY mice
Protocol: The intraperitoneal LD50 of neothramycin has been reported to be 20-30 mg/kg.

[3] = system: Streptococcus pyogenes, Micrococcus luteus, Micrococcus flavus and Mycobacterium strains; experiment: Antibacterial activity, agar dilution; type: cell-based; conditions: against Streptococcus pyogenes
Protocol: The minimum inhibitory concentration (MIC) of BBM-2040 was determined for a variety of gram-positive, gram-negative and acid-fast bacteria by the serial two-fold agar dilution method. Nutrient agar medium was used for gram-positive and gram-negative organisms and No. 1001 medium (3% glycerol, 0.3% sodium L-glutamate, 0.2% peptone, 0.31% Na2 HPO4, 0.1% KH2 PO4, 0.005% ammonium citrate, 0.001% MgSO4 and 1.5% agar) for acid-fast organisms.

lymphatic leukemia P388 = experiment: Antitumor activity against leukemia P388, second experiment (Table 10); type: in vivo, male BDF1 mice; conditions: for Average weight change / MST % T/C / Survivors Day 5 / Survivors Day 22: QD 1→9; for antitumor activity against leukemia P388 (in words): second experiment, ip, once daily for 9 days, comparative
Protocol: In this experiment lymphatic leukemia P388 was implanted intraperitoneally into male BDF1 mice at an inoculum size of 10^6 cells per mouse. Test compounds were dissolved in 0.9% saline containing 10% dimethylsulfoxide. Graded doses of test compounds were administered to mice intraperitoneally 24 hours after the tumor implantation, and the treatment was continued once daily for 9 days.
Tumor inoculum: 10^6 ascites cells implanted
Treatment: QD 1→9, i.p.
Evaluation: MST = median survival
Effect: % T/C = (MST treated/MST control) ×
Criteria: % T/C ≥125 considered as significant antitumor activity

[4] = in benzene, chloroform and n-hexane
[5] = in ethyl acetate, acetone and water
[6] = in methanol, ethanol, n-butanol and pyridine

Row | Structure (SMILES) | solubility (Solubility; [4]) | solubility (Solubility; [5]) | solubility (Solubility; [6]) | antitumor activity in the P388 mouse leukemia test (in words) (P388 mouse leukemia) | antitumor activity against leukemia P388 (in words) [1] | LD50 [2] | antibacterial activity (in words) [3] | MST % T/C (lymphatic leukemia P388; 0.1 mg/kg/day ip) | Survivors Day 5 (lymphatic leukemia P388; 0.1 mg/kg/day ip) | Survivors Day 22 (lymphatic leukemia P388; 0.1 mg/kg/day ip) | MST % T/C (lymphatic leukemia P388; 0.3 mg/kg/day ip) | Survivors Day 5 (lymphatic leukemia P388; 0.3 mg/kg/day ip) | Survivors Day 22 (lymphatic leukemia P388; 0.3 mg/kg/day ip) | MST % T/C (lymphatic leukemia P388; 1 mg/kg/day ip) | Survivors Day 5 (lymphatic leukemia P388; 1 mg/kg/day ip) | Survivors Day 22 (lymphatic leukemia P388; 1 mg/kg/day ip) | MST % T/C (lymphatic leukemia P388; 3 mg/kg/day ip) | Survivors Day 5 (lymphatic leukemia P388; 3 mg/kg/day ip) | Survivors Day 22 (lymphatic leukemia P388; 3 mg/kg/day ip) | antitumor activity against leukemia P388 (in words) (lymphatic leukemia P388) | also measured
1 | COc1cc2c(cc1O)N=C[C@@H]1C[C@H](O)CN1C2=O [BBM-2040B] | practically insoluble | slightly soluble | readily soluble | marked activity | somewhat less active than BBM-2040A | 57 mg/kg | weak antibacterial activity |  |  |  |  |  |  |  |  |  |  |  |  |  | stability in solutions (Stability in solutions): relatively unstable
2 | COc1cc2c(cc1O)N[C@H](OC)[C@@H]1C[C@@H](O)CN1C2=O [31b, reference compound] |  |  |  | essentially devoid of antitumor activity |  |  |  |  |  |  |  |  |  |  |  |  |  |  |  |  | 
3 | COc1cc2c(cc1O)N=C[C@@H]1C[C@@H](O)CN1C2=O [32b, reference compound] |  |  |  | essentially devoid of antitumor activity |  |  |  |  |  |  |  |  |  |  |  |  |  |  |  |  | 
4 | COc1cc2c(cc1O)N[C@H](OC)[C@@H]1C[C@H](O)CN1C2=O [BBM-2040A, (2S, 11aS)-5,10,11,11a-tetrahydro-2,8-dihydroxy-7,11-dimethoxy-5-oxo-1H-pyrrolo(2,1-c) (1,4)benzodiazepine] | practically insoluble | slightly soluble | readily soluble | marked activity | similarly active | 34 mg/kg | weak antibacterial activity | 100% | 6/6 | 0/6 | 117% | 6/6 | 0/6 | 133% | 6/6 | 0/6 | 142% | 6/6 | 0/6 | similarly active | Average weight change (lymphatic leukemia P388; 0.1 mg/kg/day ip): +1.5 g; Average weight change (lymphatic leukemia P388; 0.3 mg/kg/day ip): +1.3 g; MST % T/C (lymphatic leukemia P388; 10 mg/kg/day ip): 163%; Survivors Day 5 (lymphatic leukemia P388; 10 mg/kg/day ip): 6/6; Survivors Day 22 (lymphatic leukemia P388; 10 mg/kg/day ip): 1/6
5 | COc1cc2c(cc1O)N=CC1CCC(O)N1C2=O (stereo not drawn) [Neothramycin] |  |  |  |  | similarly active |  |  | 108% | 6/6 | 0/6 | 121% | 6/6 | 0/6 | 142% | 6/6 | 0/6 | 146% | 6/6 | 0/6 | similarly active | 
6 | COc1cc2c(cc1O)N[C@H](OC)[C@@H]1C[C@@H](O)CN1C2=O [2β-Hydroxy epimer of BBM-2040 A] |  |  |  |  |  |  |  |  | 6/6 | 0/6 |  | 6/6 | 0/6 |  | 6/6 | 0/6 |  |  |  |  | Survivors Day 5 (lymphatic leukemia P388; 0.03 mg/kg/day ip): 6/6; Survivors Day 22 (lymphatic leukemia P388; 0.03 mg/kg/day ip): 0/6

— US4464467A, “Antitumor antibiotics produced by new streptomyces” (Bristol-Myers Company, priority 1982, dated 1984)
